Test results taken from patent publication US20230233567A1, “BELVARAFENIB FOR USE IN CANCER TREATMENT” (Hanmi Pharm. Co., Ltd., priority 2020, published 2023).
Where two headings read alike, the source gives them in different places.

Test: Phase I study plasma pharmacokinetics
Assay type: in vivo, human
Settings: human, plasma; for AUC(0-inf) / AUC(0-t) / Cmax / AUC / Vd/F: mean; for AUC: read-out: AUC24; for Vd/F: read-out: Vz/F; for half-life: read-out: median t1/2 at steady state
Source text: The PK parameters of belvarafenib were estimated in 48 patients in the dose-escalation phase and 35 patients in the dose-expansion phase. In the tables: “AUClast” refers to the area under the plasma concentration-time curve from zero time until the last measurable concentration; “AUC0-∞” refers to area under the plasma concentration-time curve from zero time to infinity; “AUC24” refers to the area under the curve from T0 to T24; “Cmax” refers to the maximal concentration; “Tmax” refers to the time to reach Cmax; “T1/2β” refers to the terminal elimination half-life; “QD” refers to once a day; and “BID” refers to twice a day. […] Mean and coefficient of variation are presented except for Tmax where median and range are presented. One patient in the 200 QD dosing regimen who took concomitant rifampin was removed from the analysis because the AUC and Cmax of the patient were much lower than those of the others in the same cohort, which, without being bound to any particular theory, could have resulted from the drug-metabolizing enzyme induction by rifampin through which belvarafenib is biotransformed.

[1] = oral, 600 mg/day, Multiple administrations Day 22, 600 mg/day QD, n=6
[2] = oral, 900 mg/day, Multiple administrations Day 22, 900 mg/day BID, n=7
[3] = oral, 1300 mg/day, Multiple administrations Day 22, 1300 mg/day BID, n=6
[4] = oral, 1600 mg/day, Multiple administrations Day 22, 1600 mg/day BID, n=4
[5] = po, 50 mg/day QD, Day 1 first dose, 50 mg/day QD, n=3
[6] = po, 100 mg/day QD, Day 1 first dose, 100 mg/day QD, n=3
[7] = po, 200 mg, Day 1 first dose, 200 mg/day QD, n=6
[8] = po, 200 mg/day QD, Day 1 first dose, 200 mg/day QD, n=7
[9] = po, 400 mg/day BID, Day 1 first dose, 400 mg/day BID, n=11
[10] = po, 600 mg/day BID, Day 1 first dose, 600 mg/day BID, n=7
[11] = po, 600 mg/day, Day 1 first dose, 600 mg/day BID, n=7
[12] = po, 600 mg/day, Day 1 first dose, 600 mg/day QD, n=6
[13] = po, 900 mg/day, Day 1 first dose, 900 mg/day BID, n=8
[14] = po, 1300 mg/day, Day 1 first dose, 1300 mg/day BID, n=6
[15] = po, 1600 mg/day, Day 1 first dose, 1600 mg/day BID, n=6

Q: What does the source list for `Cc1ccc2c(Nc3cccc(Cl)c3F)nccc2c1NC(=O)c1csc2c(N)ncnc12` [Belvarafenib]?
A: AUC(0-inf) [1]: 434 µg·h/mL; AUC(0-t) [1]: 57600 ng·h/mL; Cmax [1]: 3130 ng/mL; AUC [1]: 58000 ng·h/mL; Vd/F [1]: 241 L; Tmax (oral, 600 mg/day, Multiple administrations Day 22, 600 mg/day QD, n=6, median, read-out: Tmax): 4.1 h; AUC(0-inf) [2]: 322 µg·h/mL; AUC(0-t) [2]: 126000 ng·h/mL; Cmax [2]: 6090 ng/mL; AUC [2]: 127000 ng·h/mL; Vd/F [2]: 148 L; Tmax (oral, 900 mg/day, Multiple administrations Day 22, 900 mg/day BID, n=7, median, read-out: Tmax): 2.9 h; AUC(0-inf) [3]: 625 µg·h/mL; AUC(0-t) [3]: 158000 ng·h/mL; Cmax [3]: 7320 ng/mL; AUC [3]: 159000 ng·h/mL; Vd/F [3]: 195 L; Tmax (oral, 1300 mg/day, Multiple administrations Day 22, 1300 mg/day BID, n=6, median, read-out: Tmax): 2 h; AUC(0-inf) [4]: 139 µg·h/mL; AUC(0-t) [4]: 49200 ng·h/mL; Cmax [4]: 2360 ng/mL; AUC [4]: 49600 ng·h/mL; Vd/F [4]: 871 L; Tmax (oral, 1600 mg/day, Multiple administrations Day 22, 1600 mg/day BID, n=4, median, read-out: Tmax): 5.5 h; Tmax (oral, BID regimens, read-out: Single-dose median Tmax): 15.5 to 24 h; half-life (oral, BID regimens): 1.35 to 2.77 days; Tmax (oral, QD regimens, read-out: Single-dose median Tmax): 3 to 4.5 h; half-life (oral, QD regimens): 2.71 to 4.42 days; AUC(0-inf) [5]: 27 µg·h/mL; Cmax [5]: 553 ng/mL; Vd/F [5]: 186 L; Tmax (po, 50 mg/day QD, Day 1 first dose, 50 mg/day QD, n=3, median, read-out: Tmax): 3 h; AUC(0-t) (po, 50 mg/day, Day 1 first dose, 50 mg/day QD, n=3): 13000 ng·h/mL; AUC(0-inf) [6]: 51.5 µg·h/mL; Cmax [6]: 807 ng/mL; Vd/F [6]: 215 L; Tmax (po, 100 mg/day QD, Day 1 first dose, 100 mg/day QD, n=3, median, read-out: Tmax): 3 h; AUC(0-t) (po, 100 mg/day, Day 1 first dose, 100 mg/day QD, n=3): 45000 ng·h/mL; AUC(0-inf) [7]: 37.8 µg·h/mL; AUC(0-t) [7]: 28800 ng·h/mL; Cmax [7]: 602 ng/mL; Vd/F [7]: 529 L; Tmax (po, 200 mg, Day 1 first dose, 200 mg/day QD, n=6, median, read-out: Tmax): 4.4 h; AUC(0-inf) [8]: 32.8 µg·h/mL; Cmax [8]: 549 ng/mL; Vd/F [8]: 550 L; Tmax (po, 200 mg/day QD, Day 1 first dose, 200 mg/day QD, n=7, median, read-out: Tmax): 4.1 h; AUC(0-t) (po, 200 mg/day, Day 1 first dose, 200 mg/day QD, n=7): 25100 ng·h/mL; AUC(0-inf) [9]: 78.3 µg·h/mL; Cmax [9]: 900 ng/mL; Vd/F [9]: 758 L; Tmax (po, 400 mg/day BID, Day 1 first dose, 400 mg/day BID, n=11, median, read-out: Tmax): 6.9 h; AUC(0-t) (po, 400 mg/day, Day 1 first dose, 400 mg/day BID, n=11): 62300 ng·h/mL; AUC(0-inf) [10]: 169 µg·h/mL; AUC(0-t) [10]: 121000 ng·h/mL; AUC(0-t) (po, 600 mg/day QD, Day 1 first dose, 600 mg/day QD, n=6): 71100 ng·h/mL; Cmax [11]: 1210 ng/mL; Vd/F [11]: 884 L; Tmax (po, 600 mg/day, Day 1 first dose, 600 mg/day BID, n=7, median, read-out: Tmax): 24 h; AUC(0-inf) [12]: 84.7 µg·h/mL; Cmax [12]: 1320 ng/mL; Vd/F [12]: 798 L; Tmax (po, 600 mg/day, Day 1 first dose, 600 mg/day QD, n=6, median, read-out: Tmax): 4.5 h; AUC(0-inf) [13]: 177 µg·h/mL; Cmax [13]: 1590 ng/mL; Vd/F [13]: 534 L; Tmax (po, 900 mg/day, Day 1 first dose, 900 mg/day BID, n=8, median, read-out: Tmax): 17 h; AUC(0-t) (po, 1300 mg/day BID, Day 1 first dose, 1300 mg/day BID, n=6): 156000 ng·h/mL; AUC(0-inf) [14]: 225 µg·h/mL; Cmax [14]: 1790 ng/mL; Vd/F [14]: 708 L; Tmax (po, 1300 mg/day, Day 1 first dose, 1300 mg/day BID, n=6, median, read-out: Tmax): 15.5 h; AUC(0-t) (po, 1600 mg/day BID, Day 1 first dose, 1600 mg/day BID, n=6): 134000 ng·h/mL; AUC(0-inf) [15]: 336 µg·h/mL; Cmax [15]: 1440 ng/mL; Vd/F [15]: 1700 L; Tmax (po, 1600 mg/day, Day 1 first dose, 1600 mg/day BID, n=6, median, read-out: Tmax): 20.4 h
